# How the values were obtained:
# Assay in all cases: relative viability (nuclei count vs DMSO), 5 days (fraction); higher = more cells survive
# [1] = system: COR-L23
# In short: (§1)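 Lung cancer cell lines, seeded in 1536-well plates, were treated the following day by pin tool with a single drug or with five library-drug doses (not always all listed) in √10 steps on top of a fixed anchor-drug dose. Cells were fixed and nuclei stained in one step after 5 days, and nuclei were counted. Relative viability is the nuclei count for treated wells divided by that for vehicle wells, reported as medians of duplicate plates.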
# [2] = system: EPLC-272H
# In short: as §1
# [3] = system: HARA
# In short: as §1
# [4] = system: HCC-15
# In short: as §1
# [5] = system: HCC-78
# In short: as §1
# [6] = system: LC-2-ad
# In short: as §1
# [7] = system: LU99A
# In short: as §1
# [8] = system: NCI-H1651
# In short: as §1
# [9] = system: NCI-H1915
# In short: as §1
# [10] = system: NCI-H1993
# In short: as §1
# [11] = system: NCI-H2009
# In short: as §1
# [12] = system: NCI-H2085
# In short: as §1
# [13] = system: NCI-H2126
# In short: as §1
# [14] = system: NCI-H2347
# In short: as §1
# [15] = system: NCI-H460
# In short: as §1
# [16] = system: NCI-H838
# In short: as §1
# [17] = system: PC-14
# In short: as §1
# [18] = system: SW 1573
# In short: as §1
# [19] = system: UMC-11
# In short: as §1
smiles,measurement,setting,value
Clc1ccc(Nc2nnc(Cc3ccncc3)c3ccccc23)cc1 [Vatalanib] + CC1(C)CCC(c2ccc(Cl)cc2)=C(CN2CCN(c3ccc(C(=O)NS(=O)(=O)c4ccc(N[C@H](CCN5CCOCC5)CSc5ccccc5)c(S(=O)(=O)C(F)(F)F)c4)cc3)CC2)C1 [Navitoclax] (partner 0.5 µM),relative viability,[1]; first compound 0.04 µM,1.1
same,relative viability,[1]; first compound 0.1265 µM,0.972
same,relative viability,[1]; first compound 0.4 µM,1.24
same,relative viability,[1]; first compound 1.265 µM,0.778
same,relative viability,[1]; first compound 4 µM,1.01
same,relative viability,[2]; first compound 0.04 µM,1.08
same,relative viability,[2]; first compound 0.1265 µM,1.04
same,relative viability,[2]; first compound 0.4 µM,1.05
same,relative viability,[2]; first compound 1.265 µM,1.05
same,relative viability,[2]; first compound 4 µM,1.13
same,relative viability,[3]; first compound 0.04 µM,1.08
same,relative viability,[3]; first compound 0.1265 µM,1.03
same,relative viability,[3]; first compound 0.4 µM,1.18
same,relative viability,[3]; first compound 1.265 µM,1.11
same,relative viability,[3]; first compound 4 µM,1.13
same,relative viability,[4]; first compound 0.04 µM,0.719
same,relative viability,[4]; first compound 0.1265 µM,0.713
same,relative viability,[4]; first compound 0.4 µM,0.767
same,relative viability,[4]; first compound 1.265 µM,0.737
same,relative viability,[4]; first compound 4 µM,0.654
same,relative viability,[5]; first compound 0.04 µM,0.714
same,relative viability,[5]; first compound 0.1265 µM,0.76
same,relative viability,[5]; first compound 0.4 µM,0.888
same,relative viability,[5]; first compound 4 µM,0.72
same,relative viability,[6]; first compound 0.04 µM,0.415
same,relative viability,[6]; first compound 0.1265 µM,0.456
same,relative viability,[6]; first compound 0.4 µM,0.558
same,relative viability,[6]; first compound 1.265 µM,0.412
same,relative viability,[6]; first compound 4 µM,0.529
same,relative viability,[7]; first compound 0.04 µM,0.763
same,relative viability,[7]; first compound 0.1265 µM,0.719
same,relative viability,[7]; first compound 0.4 µM,1.11
same,relative viability,[7]; first compound 1.265 µM,0.855
same,relative viability,[7]; first compound 4 µM,0.859
same,relative viability,[8]; first compound 0.04 µM,0.928
same,relative viability,[8]; first compound 0.1265 µM,1.09
same,relative viability,[8]; first compound 0.4 µM,1.11
same,relative viability,[8]; first compound 1.265 µM,1.02
same,relative viability,[8]; first compound 4 µM,1.08
same,relative viability,[9]; first compound 0.04 µM,0.805
same,relative viability,[9]; first compound 0.1265 µM,0.796
same,relative viability,[9]; first compound 0.4 µM,0.771
same,relative viability,[9]; first compound 1.265 µM,0.794
same,relative viability,[9]; first compound 4 µM,0.779
same,relative viability,[10]; first compound 0.04 µM,0.894
same,relative viability,[10]; first compound 0.1265 µM,0.935
same,relative viability,[10]; first compound 0.4 µM,0.826
same,relative viability,[10]; first compound 1.265 µM,0.789
same,relative viability,[10]; first compound 4 µM,0.63
same,relative viability,[11]; first compound 0.04 µM,1.18
same,relative viability,[11]; first compound 0.1265 µM,1.09
same,relative viability,[11]; first compound 0.4 µM,1.24
same,relative viability,[11]; first compound 1.265 µM,1.12
same,relative viability,[11]; first compound 4 µM,1.13
same,relative viability,[12]; first compound 0.04 µM,1.12
same,relative viability,[12]; first compound 0.1265 µM,1.25
same,relative viability,[12]; first compound 0.4 µM,1.29
same,relative viability,[12]; first compound 1.265 µM,1.05
same,relative viability,[12]; first compound 4 µM,1.01
same,relative viability,[13]; first compound 0.04 µM,0.834
same,relative viability,[13]; first compound 0.1265 µM,0.914
same,relative viability,[13]; first compound 0.4 µM,0.851
same,relative viability,[13]; first compound 1.265 µM,0.801
same,relative viability,[13]; first compound 4 µM,0.76
same,relative viability,[14]; first compound 0.04 µM,0.861
same,relative viability,[14]; first compound 0.1265 µM,0.78
same,relative viability,[14]; first compound 0.4 µM,0.885
same,relative viability,[14]; first compound 1.265 µM,0.739
same,relative viability,[14]; first compound 4 µM,0.796
same,relative viability,[15]; first compound 0.04 µM,1.17
same,relative viability,[15]; first compound 0.1265 µM,1.09
same,relative viability,[15]; first compound 0.4 µM,1.11
same,relative viability,[15]; first compound 1.265 µM,1.04
same,relative viability,[15]; first compound 4 µM,1.11
same,relative viability,[16]; first compound 0.04 µM,1.08
same,relative viability,[16]; first compound 0.1265 µM,1.11
same,relative viability,[16]; first compound 0.4 µM,1.19
same,relative viability,[16]; first compound 1.265 µM,1.07
same,relative viability,[16]; first compound 4 µM,1.18
same,relative viability,[17]; first compound 0.04 µM,1.04
same,relative viability,[17]; first compound 0.1265 µM,0.941
same,relative viability,[17]; first compound 0.4 µM,1.07
same,relative viability,[17]; first compound 1.265 µM,1.03
same,relative viability,[17]; first compound 4 µM,0.997
same,relative viability,[18]; first compound 0.04 µM,0.938
same,relative viability,[18]; first compound 0.1265 µM,1.03
same,relative viability,[18]; first compound 0.4 µM,1.02
same,relative viability,[18]; first compound 1.265 µM,0.872
same,relative viability,[18]; first compound 4 µM,0.969
same,relative viability,[19]; first compound 0.04 µM,0.274
same,relative viability,[19]; first compound 0.1265 µM,0.367
same,relative viability,[19]; first compound 0.4 µM,0.303
same,relative viability,[19]; first compound 1.265 µM,0.29
same,relative viability,[19]; first compound 4 µM,0.322

# — the supplement of paper PMC10307832
